Source: US8906826B2, “Herbicidal compositions comprising 4-amino-3-chloro-5-fluoro-6-(4-chloro-2-fluoro-3-methoxyphenyl) pyridine-2-carboxylic acid or a derivative thereof and imidazolinones” (Dow AgroSciences, LLC, priority 2012, dated 2014)

Legend:
ALOMY = test: Postemergence foliar-applied, general weed control (Example III); assay type: in vivo, Alopecurus myosuroides Huds.
Protocol: (§1) Seeds or nutlets of the desired test plant species were planted in Sun Gro Metro-Mix® 360 planting mixture, which typically has a pH of about 6.0 to about 6.8 and an organic matter content of about 30 percent, in plastic pots with a surface area of 84.6 cm^2 and a volume of 560 cubic centimeters (cm^3). When required to ensure good germination and healthy plants, a fungicide treatment and/or other chemical or physical treatment was applied. The plants were grown for 7-31 days (d) in a greenhouse with an approximate 15 hour (h) photoperiod which was maintained at about 23-29° C. during the day and about 22-28° C. during the night. Nutrients (Peters Excel® 15-5-15 5-Ca 2-Mg) and water were added on a regular basis and supplemental lighting was provided with overhead metal halide 1000-Watt lamps as necessary. The plants were employed for testing when they reached the first, second, or third true leaf stage.
(§2) Treatment requirements were calculated based upon the rates being tested, the concentration of active ingredient or acid equivalent in the formulation, and a 12 mL application volume at a rate of 187 L/ha.
(§3) Treatments consisted of the acid or esters of 4-amino-3-chloro-5-fluoro-6-(4-chloro-2-fluoro-3-methoxy-phenyl)pyridine-2-carboxylic acid (Compound A), each formulated as an SC, and various herbicidal components alone and in combination. Forms of compound A were applied on an acid equivalent basis.
Other herbicidal components were applied on an acid equivalent basis and included acetolactate synthase (ALS)-inhibiting herbicides (imidazolinone chemical class) imazethapyr ammonium salt formulated as Newpath®, and imazapic ammonium salt formulated as Plateau®.
For treatments comprised of formulated compounds, measured amounts of compounds were placed individually in 25 mL glass vials and diluted in a volume of 1.25% (v/v) Agri-Dex® crop oil concentrated to obtain 12× stock solutions. […] Application solutions were prepared by adding an appropriate amount of each stock solution (typically 1 mL) and diluted to the appropriate final concentrations with the addition of 10 mL of an aqueous mixture of 1.25% (v/v) crop oil concentrate so that the final spray solutions contained 1.25+/−0.05% (v/v) crop oil concentrate.
All stock solutions and applications solutions were visually inspected for compound compatibility prior to application. […]
(§4) The treated plants and control plants were placed in a greenhouse as described above and watered by sub-irrigation to prevent wash-off of the test compounds. After approximately 3 weeks, the condition of the test plants as compared with that of the untreated plants was determined visually and scored on a scale of 0 to 100 percent where 0 corresponds to no injury or growth inhibition and 100 corresponds to complete kill. […]

ECHCG = test: In-water applied, transplanted paddy rice weeds (Example II); assay type: in vivo, Echinochloa crusgalli (L.) Beauv.
Protocol: Weed seeds or nutlets of the desired test plant species were planted in puddled soil (mud) prepared by mixing a shredded, non-sterilized mineral soil (50.5 percent silt, 25.5 percent clay, and 24 percent sand, with a pH of about 7.6 and an organic matter content of about 2.9 percent) and water at a 1:1 volumetric ratio. The prepared mud was dispensed in 365 mL aliquots into 16-ounce (oz.) non-perforated plastic pots with a surface area of 86.59 square centimeters (cm^2) leaving a headspace of 3 centimeters (cm) in each pot. Mud was allowed to dry overnight prior to planting or transplanting. Rice seeds were planted in Sun Gro MetroMix® 306 planting mixture, which typically has a pH of about 6.0 to about 6.8 and an organic matter content of about 30 percent, in plastic plug trays. Seedlings at the second or third leaf stage of growth were transplanted into 860 mL of mud contained in 32-oz. non-perforated plastic pots with a surface area of 86.59 cm^2 4 days prior to herbicide application. The paddy was created by filling the headspace of the pots with 2.5 to 3 cm of water. When required to ensure good germination and healthy plants, a fungicide treatment and/or other chemical or physical treatment was applied. The plants were grown for 4-22 days in a greenhouse with an approximate 14 h photoperiod which was maintained at about 29° C. during the day and about 26° C. during the night. Nutrients were added as Osmocote® (19:6:12, N:P:K+minor nutrients) at 2 g per 16-oz. pot and 4 g per 32-oz. pot. Water was added on a regular basis to maintain the paddy flood, and supplemental lighting was provided with overhead metal halide 1000-Watt lamps as necessary. The plants were employed for testing when they reached the first through fourth true leaf stage.
Treatments consisted of the acid or esters of 4-amino-3-chloro-5-fluoro-6-(4-chloro-2-fluoro-3-methoxy-phenyl)pyridine-2-carboxylic acid (compound A) each formulated as an SC and various herbicidal components alone and in combination. Forms of compound A were applied on an acid equivalent basis.
Other herbicidal components were applied on an acid equivalent basis and included the acetolactate synthase (ALS)-inhibiting imidazolinone herbicides imazethapyr ammonium salt formulated as Newpath®, imazamox ammonium salt formulated as Beyond®, imazapic ammonium salt formulated as Plateau®, imazapyr isopropylamine salt formulated as Arsenal®, imazamethabenz-methyl (technical material), and imazaquin isopropylamine salt formulated as Scepter®.
Treatment requirements for each compound or herbicidal component were calculated based upon the rates being tested, the concentration of active ingredient or acid equivalent in the formulation, an application volume of 2 mL per component per pot, and an application area of 86.59 cm^2 per pot.
For formulated compounds, a measured amount was placed in an individual 100 or 200 mL glass vial and was dissolved in a volume of 1.25% (v/v) Agri-Dex® crop oil concentrate to obtain application solutions.
For technical grade compounds, a weighed amount was placed in an individual 100 to 200 mL glass vial and was dissolved in a volume of acetone to obtain concentrated stock solutions. […] The concentrated stock solutions obtained were diluted with an equivalent volume of an aqueous mixture containing 2.5% (v/v) crop oil concentrate so that the final application solutions contained 1.25% (v/v) crop oil concentrate.
Applications were made by injecting with a pipetter appropriate amounts of the application solutions, individually and sequentially, into the aqueous layer of the paddy. Control plants were treated in the same manner with the solvent blank. Applications were made so that all treated plant material received the same concentrations of acetone and crop oil concentrate.
The treated plants and control plants were placed in a greenhouse as described above and water was added as needed to maintain a paddy flood. […]

AVEFA = test: Postemergence foliar-applied, general weed control (Example III); assay type: in vivo, Avena fatua L.
Protocol: as §1, §2
as §3, with “basis. […]” for “basis.”
For treatments comprised of formulated compounds, measured amounts of compounds were placed individually in 25 mL glass vials and diluted in a volume of 1.25% (v/v) Agri-Dex® crop oil concentrated to obtain 12× stock solutions. […]
as §4

SMILES: Cc1cnc(C2=NC(C)(C(C)C)C(=O)N2)c(C(=O)O)c1.N (racemic) [Imazapic ammonium, ammonium (±)-2-[4,5-dihydro-4-methyl-4-(1-methylethyl)-5-oxo-1H-imidazol-2-yl]-5-methyl-3-pyridinecarboxylic acid]
- Visual Control (%) - 19 DAA ALOMY Obs (ALOMY; Imazapic ammonium 35 gae/ha): 30%
- Visual Weed Control (%) - 19 DAA ALOMY Obs (ALOMY; Imazapic ammonium 35 gae/ha): 30%
- Visual Weed Control (%) - 25 DAA ECHCG Obs (ECHCG; Imazapic ammonium 8.75 gae/ha): 20%
- Visual Weed Control (%) - 25 DAA ECHCG Obs (ECHCG; Imazapic ammonium 17.5 gae/ha): 20%
- Visual Weed Control (%) - 19 DAA AVEFA Obs (AVEFA; Imazapic ammonium 35 gae/ha): 70%

SMILES: COc1c(Cl)ccc(-c2nc(C(=O)O)c(Cl)c(N)c2F)c1F [Compound A Acid, 4-amino-3-chloro-6-(4-chloro-2-fluoro-3-methoxyphenyl)-5-fluoropyridine-2-carboxylic acid]
- Visual Weed Control (%) - 19 DAA ALOMY Obs (ALOMY; Compound A Acid 29 gae/ha): 10%
- Visual Weed Control (%) - 25 DAA ECHCG Obs (ECHCG; Compound A Acid 8.75 gae/ha): 0%
- Visual Weed Control (%) - 25 DAA ECHCG Obs (ECHCG; Compound A Acid 17.5 gae/ha): 0%
- Visual Weed Control (%) - 25 DAA ECHCG Obs (ECHCG; Compound A Acid 35 gae/ha): 0%
- Visual Weed Control (%) - 19 DAA AVEFA Obs (AVEFA; Compound A Acid 29 gae/ha): 10%

SMILES: CCc1cnc(C2=NC(C)(C(C)C)C(=O)N2)c(C(=O)O)c1.N (racemic) [Imazethapyr ammonium, ammonium (±)-2-[4,5-dihydro-4-methyl-4-(1-methylethyl)-5-oxo-1H-imidazol-2-yl]-5-ethyl-3-pyridinecarboxylate]
- Visual Weed Control (%) - 25 DAA ECHCG Obs (ECHCG; Imazethapyr ammonium 8.75 gae/ha): 0%
- Visual Weed Control (%) - 25 DAA ECHCG Obs (ECHCG; Imazethapyr ammonium 17.5 gae/ha): 0%
- Visual Weed Control (%) - 25 DAA ECHCG Obs (ECHCG; Imazethapyr ammonium 35 gae/ha): 50%
- Visual Weed Control (%) - 19 DAA AVEFA Obs (AVEFA; Imazethapyr ammonium 70 gae/ha): 80%

SMILES: COc1c(Cl)ccc(-c2nc(C(=O)OCc3ccccc3)c(Cl)c(N)c2F)c1F [Compound A Benzyl Ester, benzyl ester of 4-amino-3-chloro-5-fluoro-6-(4-chloro-2-fluoro-3-methoxy-phenyl)pyridine-2-carboxylic acid]
- Visual Control (%) - 19 DAA ALOMY Obs (ALOMY; Compound A Benzyl Ester 24 gae/ha): 20%
- Visual Weed Control (%) - 25 DAA ECHCG Obs (ECHCG; Compound A Benzyl Ester 17.5 gae/ha): 10%
- Visual Weed Control (%) - 25 DAA ECHCG Obs (ECHCG; Compound A Benzyl Ester 35 gae/ha): 45%

SMILES: COCc1cnc(C2=NC(C)(C(C)C)C(=O)N2)c(C(=O)O)c1.N (racemic) [Imazamox ammonium, ammonium (±)-2-[4,5-dihydro-4-methyl-4-(1-methylethyl)-5-oxo-1H-imidazol-2-yl]-5-(methoxymethyl)-3-pyridinecarboxylate]
- Visual Weed Control (%) - 25 DAA ECHCG Obs (ECHCG; Imazamox ammonium 5.6 gae/ha): 0%
- Visual Weed Control (%) - 25 DAA ECHCG Obs (ECHCG; Imazamox ammonium 22.4 gae/ha): 25%
